# Assay results published in ChEMBL document CHEMBL1144190, “Structure-activity relationship study of a novel necroptosis inhibitor, necrostatin-7” (Bioorg Med Chem Lett, 2008).
# The source made the active and inactive calls. No cut-off for these calls is given here.
# Experiments:
# Jurkat = assay: Inhibition of TNF-alpha-induced necroptosis in FADD-deficient human Jurkat cells; type: functional, cell-based
# [1] = target: T1, Receptor-interacting serine/threonine-protein kinase 1 (Homo sapiens) (UniProt Q13546); assay: Inhibition of GST-tagged human recombinant RIP1 kinase expressed in Sf9 cells
# T1 sequence (whole entry): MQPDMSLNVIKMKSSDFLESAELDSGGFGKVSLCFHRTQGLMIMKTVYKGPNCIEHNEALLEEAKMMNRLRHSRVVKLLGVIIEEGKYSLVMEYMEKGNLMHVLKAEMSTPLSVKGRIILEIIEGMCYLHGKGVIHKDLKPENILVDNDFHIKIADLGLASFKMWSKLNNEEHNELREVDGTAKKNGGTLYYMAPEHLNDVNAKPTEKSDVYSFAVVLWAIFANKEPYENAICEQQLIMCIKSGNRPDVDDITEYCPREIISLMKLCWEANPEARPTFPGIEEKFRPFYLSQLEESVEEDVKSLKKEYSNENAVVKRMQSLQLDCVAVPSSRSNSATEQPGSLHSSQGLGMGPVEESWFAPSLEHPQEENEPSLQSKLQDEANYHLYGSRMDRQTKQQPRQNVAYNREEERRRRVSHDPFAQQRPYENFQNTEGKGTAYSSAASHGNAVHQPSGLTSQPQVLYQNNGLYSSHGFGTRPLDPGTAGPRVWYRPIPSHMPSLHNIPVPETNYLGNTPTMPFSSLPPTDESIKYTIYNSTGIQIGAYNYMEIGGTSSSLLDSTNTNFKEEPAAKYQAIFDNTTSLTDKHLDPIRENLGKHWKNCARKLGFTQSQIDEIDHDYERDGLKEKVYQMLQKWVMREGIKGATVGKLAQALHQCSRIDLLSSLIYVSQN
Compound,EC50 (Jurkat) [µM],Activity (Jurkat),also measured
N=C1S/C(=C\c2c[nH]nc2-c2ccc(N3CCCCC3)cc2)C(=O)N1c1nccs1,6.36,–,–
N=C1S/C(=C\c2n[nH]nc2-c2ccccc2)C(=O)N1c1nccs1,–,inactive,–
Cc1cnc(N2C(=N)S/C(=C\c3c[nH]nc3-c3ccc(F)cc3)C2=O)s1,23.1,–,–
N=C1S/C(=C\c2c[nH]nc2-c2ccc3c(c2)OCO3)C(=O)N1c1nccs1,34.8,–,–
N=C1S/C(=C\c2c[nH]nc2-c2ccc(-c3cccc(F)c3)cc2)C(=O)N1c1nccs1,48,–,–
COc1ccc(-c2ccc(-c3n[nH]cc3/C=C3\SC(=N)N(c4nccs4)C3=O)cc2)cc1,2.59,–,–
N=C1S/C(=C\c2cc(Cc3ccccc3)[nH]c2-c2ccc(F)cc2)C(=O)N1c1nccs1,–,inactive,–
N=C1S/C(=C\c2cc(-c3ccccc3)[nH]c2-c2ccc(F)cc2)C(=O)N1c1nccs1,–,inactive,–
N=C1S/C(=C\c2c[nH]nc2-c2ccc(C(=O)N3CCCCC3)cc2)C(=O)N1c1nccs1,2.09,–,–
N=C1S/C(=C\c2c[nH]nc2-c2ccccc2F)C(=O)N1c1nncs1,–,inactive,–
N=C1S/C(=C\c2conc2-c2ccc([N+](=O)[O-])cc2)C(=O)N1c1nccs1,–,inactive,–
N=C1S/C(=C\c2c[nH]nc2-c2ccc(N3CCOCC3)cc2)C(=O)N1c1nccs1,2.93,–,–
COc1ccccc1-c1ccc(-c2n[nH]cc2/C=C2\SC(=N)N(c3nccs3)C2=O)cc1,2.41,–,–
N=C1S/C(=C\c2c[nH]nc2-c2ccc(F)c(F)c2)C(=O)N1c1nccs1,6.32,–,–
Cc1ccc(-c2n[nH]cc2/C=C2\SC(=N)N(c3nccs3)C2=O)cc1,7.77,–,–
N=C1S/C(=C\c2cc(CC(N)=O)[nH]c2-c2ccc(F)cc2)C(=O)N1c1nccs1,–,inactive,–
N=C1S/C(=C\c2c[nH]nc2-c2cccc(F)c2)C(=O)N1c1nccs1,–,inactive,–
N=C1S/C(=C\c2c[nH]nc2-c2ccc(N3CCCC3)cc2)C(=O)N1c1nccs1,9.53,–,–
Cc1ccc(-c2ccc(-c3n[nH]cc3/C=C3\SC(=N)N(c4nccs4)C3=O)cc2)cc1,4.38,–,–
COc1ccc(-c2n[nH]nc2/C=C2\SC(=N)N(c3nccs3)C2=O)cc1,–,inactive,–
N=C1S/C(=C\c2c[nH]nc2-c2ccc(F)cc2)C(=O)N1c1nccs1,10.6,–,–
N=C1S/C(=C\c2c[nH]nc2-c2ccc(F)c(N3CCOCC3)c2)C(=O)N1c1nccs1,2.9,–,–
N=C1S/C(=C\c2c[nH]nc2-c2ccc(-c3ccc(F)cc3)cc2)C(=O)N1c1nccs1,3.87,–,–

Compound,EC50 (Jurkat) [µM],Activity (Jurkat),also measured
Cc1ccc(-c2nocc2/C=C2\SC(=N)N(c3nccs3)C2=O)cc1,–,inactive,–
N=C1S/C(=C\c2c[nH]nc2-c2ccc(O)cc2)C(=O)N1c1nccs1,32.7,–,–
N=C1S/C(=C\c2c[nH]nc2-c2ccc(F)cc2)C(=O)N1c1nncs1,–,inactive,–
N=C1S/C(=C\c2c[nH]nc2-c2ccc([N+](=O)[O-])cc2)C(=O)N1c1nccs1,23,–,–
N=C1S/C(=C\c2c[nH]nc2-c2cccc(F)c2)C(=O)N1c1nncs1,–,inactive,–
N=C1S/C(=C\c2c[nH]nc2-c2ccc(Cl)cc2)C(=O)N1c1nccs1,15.6,–,–
N=C1S/C(=C\c2c[nH]nc2-c2ccc(S(=O)(=O)c3ccccc3)cc2)C(=O)N1c1nccs1,1.78,–,Activity [1]: inactive
N=C1S/C(=C\c2c[nH]nc2-c2ccc(C(=O)N3CCOCC3)cc2)C(=O)N1c1nccs1,7.19,–,–
N=C1S/C(=C\c2conc2-c2ccc(F)cc2)C(=O)N1c1nccs1,–,inactive,–
N=C1S/C(=C\c2c[nH]nc2-c2ccccc2)C(=O)N1c1nncs1,–,inactive,–
N=C1S/C(=C\c2conc2-c2ccc(Cl)cc2)C(=O)N1c1nccs1,–,inactive,–
Cc1cc(/C=C2\SC(=N)N(c3nccs3)C2=O)c(-c2ccc(F)cc2)[nH]1,–,inactive,–
N=C1S/C(=C\c2c[nH]nc2-c2ccccc2)C(=O)N1c1nccs1,40.6,–,–
N=C1S/C(=C\c2c[nH]nc2-c2ccc(N3CCSCC3)cc2)C(=O)N1c1nccs1,3.3,–,–
N=C1S/C(=C\c2c[nH]nc2-c2ccc(-c3ccccc3)cc2)C(=O)N1c1nccs1,1.29,–,–
N=C1S/C(=C\c2c[nH]nc2-c2ccccc2F)C(=O)N1c1nccs1,–,inactive,–
N=C1S/C(=C\c2n[nH]nc2-c2ccc(F)cc2)C(=O)N1c1nccs1,–,inactive,–
N=C1S/C(=C\c2c[nH]nc2-c2ccc(-c3ccc(Cl)cc3)cc2)C(=O)N1c1nccs1,> 100,–,–
N=C1S/C(=C\c2n[nH]nc2-c2ccc(Cl)cc2)C(=O)N1c1nccs1,–,inactive,–
N=C1S/C(=C\c2c[nH]nc2-c2ccc(Br)cc2)C(=O)N1c1nccs1,34.5,–,–
Cc1csc(N2C(=N)S/C(=C\c3c[nH]nc3-c3ccc(F)cc3)C2=O)n1,5.25,–,–
COc1ccc(-c2n[nH]cc2/C=C2\SC(=N)N(c3nccs3)C2=O)cc1,14.9,–,–
